Assay results reported in paper PMC8705818, “Experimental Characterization of the Interaction between the N-Terminal SH3 Domain of Crkl and C3G” (International Journal of Molecular Sciences, 2021).
Peptide text beside a SMILES is read from it. * marks the point of attachment. Dansyl = CN(C)c1cccc2c(S(=O)(=O)*)cccc12

Target: T1, N-SH3 D141A (Crkl) (Homo sapiens, UniProt P46109, D141A)
T1 construct: The construct encoding the N-SH3 domain of Crkl was subcloned in a pET28b+ plasmid vector; His-tag; made in house; host or cells: E. coli BL21
Test: Stopped-flow displacement, N-SH3 D141A:dansyl-C3G277–296 complex
Assay type: binding
Conditions: Hepes 50 mM pH 7.0 + 20% w/v sucrose, 10 °C
Experimental: To further investigate this aspect, we resorted to performing displacement experiments, targeted to the direct calculation of microscopic dissociation rate constant koff. […] To test this and to slow down the diffusion of molecules, we repeated the experiment increasing the viscosity of the solution adding 20% w/v sucrose to the buffer Hepes 50 mM pH 7.0. Although the trace was satisfactorily fitted with a single-exponential equation, the koff calculated is 800 ± 30 s^−1, a value that is far beyond the resolution capability of the stopped-flow, a consistent part of the reaction occurring in the dead time of the instrument. Based on the calculated affinity of D141A variant for C3G in the absence of sucrose, this dramatic increase in koff might be accompanied by a strong increase in kon.
Kinetic binding experiments were performed on a single-mixing SX-18 stopped-flow instrument (Applied Photophysics), by mixing a constant concentration (0.5 μM) of C3G dansylated versus increasing concentrations of N-SH3 at 10 °C. Ionic strength dependence of wt N-SH3 was performed with concentrations ranging from 1 to 5 µM for 0 M NaCl condition and from 0.5 to 5 µM for 0.15 M, 0.3 M, 0.5 M and 1 M NaCl, buffer Hepes 50 mM pH 7.0. The excitation wavelength was 280 nm, and fluorescence was collected using a 455 nm cut-off filter. […]

T1 sequence (P46109 123-183 D141A limits assumed): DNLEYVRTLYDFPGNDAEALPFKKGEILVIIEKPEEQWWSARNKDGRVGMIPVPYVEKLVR

koff: 800 ± 30 s⁻¹
Structure (SMILES): CC(C)C[C@H](NC(=O)[C@H](C)NC(=O)[C@@H]1CCCN1C(=O)[C@@H]1CCCN1C(=O)[C@@H]1CCCN1C(=O)[C@H](CO)NC(=O)[C@H](CC(N)=O)NC(=O)[C@H](CC(=O)O)NC(=O)[C@@H](NC(=O)[C@@H](NS(=O)(=O)c1cccc2c(N(C)C)cccc12)C(C)C)C(C)C)C(=O)N1CCC[C@H]1C(=O)N1CCC[C@H]1C(=O)N[C@@H](CCCCN)C(=O)N[C@@H](CCCCN)C(=O)N[C@@H](CCCNC(=N)N)C(=O)N[C@@H](CCC(N)=O)C(=O)N[C@@H](CO)C(=O)N[C@@H](C)C(=O)N1CCC[C@H]1C(=O)N[C@@H](CO)C(=O)O [dansyl-C3G277–296] (Dansyl-VVDNSPPPALPPKKRQSAPS-OH)
